From article PMC8143347, “Metabolism and Interspecies Variation of IMMH-010, a Programmed Cell Death Ligand 1 Inhibitor Prodrug” (Pharmaceutics, 2021)

What was measured:
[1] = Body weight in B16F10 model
Experimental: (§1) The antitumor activity of IMMH-010 was evaluated by B16F10 melanoma and MC38 colon carcinoma xenograft models. The B16F10 and MC38 cells were resuspended in saline (1.5 × 10^6 cells/0.2 mL saline) and injected subcutaneously into the right flanks of each mouse on day 0. The treated mice received once-daily oral administration of IMMH-010 maleate (1.25, 2.5, 5, and 10 mg/kg, n = 10) by oral gavage (PO) for 19 consecutive days, whereas the control mice received vehicle (0.5% carboxymethyl cellulose, n = 10). The mice in the positive control group received the anti-mouse PD-L1 antibody (696618M2, Bio X Cell, West Lebanon, NH, USA) at 10 mg/kg intraperitoneally every 3 days (n = 10). The first-line antineoplastic drug cyclophosphamide (CTX) was administered at doses of 80 and 40 mg/kg weekly in the B16F10 and MC38 models (n = 10), respectively. After the last treatment, on day 19, the mice were sacrificed, and the tumor and spleen were stripped and weighed. The tumor growth inhibition (TGI) was calculated as TGI = (1 − treatment group tumor weight/vehicle group tumor weight) × 100.

recombinant human AADAC = target: T1, recombinant human AADAC (Homo sapiens, UniProt P22760); assay: IMMH-010 hydrolysis by recombinant human AADAC; type: in vitro ADME; conditions: 10 μM, AADAC 0.1 mg/mL, 15 min, 37 °C
T1 construct: purchased CUSABIO Biotech Co., Ltd. (Wuhan, China)
T1 sequence (P22760 1-399): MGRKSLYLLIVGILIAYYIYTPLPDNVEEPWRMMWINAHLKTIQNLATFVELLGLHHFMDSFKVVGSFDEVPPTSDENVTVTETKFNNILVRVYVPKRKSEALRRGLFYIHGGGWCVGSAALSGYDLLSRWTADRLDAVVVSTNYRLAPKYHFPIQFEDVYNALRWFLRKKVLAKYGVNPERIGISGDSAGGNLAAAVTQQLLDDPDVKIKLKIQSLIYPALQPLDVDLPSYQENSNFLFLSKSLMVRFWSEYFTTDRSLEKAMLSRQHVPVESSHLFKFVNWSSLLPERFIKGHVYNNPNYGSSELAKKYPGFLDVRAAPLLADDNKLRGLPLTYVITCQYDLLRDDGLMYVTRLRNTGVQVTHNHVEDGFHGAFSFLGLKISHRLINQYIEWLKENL
Experimental: To verify the role of CES1, CES2, and AADAC in human metabolism of […]-010 (10 μM) was incubated individually with recombinant human CES1, CES2, and AADAC (0.1 mg protein/mL) at 37 °C for 15 min. Lidocaine (500 μM), CPT-11 (2 μM), and phenacetin (1 mM), which are substrates of CES1, CES2, and AADAC, were used as positive controls.

B16F10 melanoma = assay: Antitumor activity in B16F10 melanoma xenograft model; type: in vivo, mouse
Experimental: as §1

MC38 colon carcinoma = assay: Antitumor activity in MC38 colon carcinoma xenograft model; type: in vivo, mouse
Experimental: as §1

[2] = Body weight in MC38 model
Experimental: as §1

[3] = Metabolism in human liver S9 fractions; type: in vitro ADME
Experimental: IMMH-010 metabolism was compared in human, monkey, dog, and rat liver S9 homogenates. IMMH-010 (10 μM) was incubated with liver S9 homogenate protein (0.5 mg protein/mL) and a reduced nicotinamide adenine dinucleotide phosphate (NADPH) regenerating system in a final volume of 0.2 mL Tris-HCl buffer (50 mM, pH 7.4) containing 5 mM MgCl2. The reactions were performed in triplicate. After 2 min of preincubation at 37 °C, reactions were initiated by the addition of IMMH-010 (10 μM). The samples were collected 0, 5, 10, and 20 min after incubation, 2 volumes of acetonitrile were added to terminate the reaction. After vortexing and centrifugation, IMMH-010, YPD-29B, M3, and M4 in the supernatant were analyzed by LC-MS/MS.
All statistics were calculated using GraphPad Prism 8.0 software (San Diego, CA, USA) designed for one-way ANOVA. Pharmacokinetic parameters were calculated with a non-compartmental analysis using WinNonlin Version 6.3 (Pharsight, Mountain View, CA, USA). ADMET predictor V10.0 (Simulations Plus, Inc., Lancaster, CA, USA) and Microsoft Excel (Microsoft, Redmond, WA, USA) were used to process the data (i.e., half-life (t1/2) and hepatic clearance (CLhep) determination). Data were expressed as means ± standard deviations (SD). Results were considered statistically significant if the p-value <0.05, <0.01 and <0.001.

PD-1/PD-L1 = conditions: stated in introduction, source not given; read-out: PD-L1 inhibitory activity IC50; cited from earlier work
[4] = B16F10, IMMH-010 maleate 1.25 mg/kg PO once daily 19 days
[5] = B16F10, IMMH-010 maleate 2.5 mg/kg PO once daily 19 days
[6] = B16F10, IMMH-010 maleate 5 mg/kg PO once daily 19 days
[7] = B16F10, IMMH-010 maleate 10 mg/kg PO once daily 19 days
[8] = MC38, IMMH-010 maleate 1.25 mg/kg PO once daily 19 days
[9] = MC38, IMMH-010 maleate 2.5 mg/kg PO once daily 19 days
[10] = MC38, IMMH-010 maleate 5 mg/kg PO once daily 19 days
[11] = MC38, IMMH-010 maleate 10 mg/kg PO once daily 19 days

CC(C)OC(=O)[C@H](CO)NCc1cc(Cl)c(OCc2cccc(-c3ccccc3)c2Br)cc1OCc1cccnc1 [IMMH-010]
Body Weight (g) X ± SD Finish [1, 4]: 20.2 ± 1.4 g
Body Weight (g) X ± SD Start ([1]; B16F10, IMMH-010 maleate 1.25 mg/kg PO once daily): 17.09 ± 0.63 g
Body Weight (g) X ± SD Finish [1, 5]: 20.3 ± 1.2 g
Body Weight (g) X ± SD Start ([1]; B16F10, IMMH-010 maleate 2.5 mg/kg PO once daily): 16.86 ± 0.57 g
Body Weight (g) X ± SD Finish [1, 6]: 20.0 ± 1.2 g
Body Weight (g) X ± SD Start ([1]; B16F10, IMMH-010 maleate 5 mg/kg PO once daily): 17.09 ± 0.81 g
Body Weight (g) X ± SD Finish [1, 7]: 20.1 ± 1.0 g
Body Weight (g) X ± SD Start ([1]; B16F10, IMMH-010 maleate 10 mg/kg PO once daily): 17.15 ± 0.50 g
effect on body weight ([1]; B16F10 model, IMMH-010 maleate PO once a day for 19 days): without weight loss
remaining amount of IMMH-010 (recombinant human AADAC): 98.7%
Tumor Weight (g) X ± SD (B16F10 melanoma; [4]): 1.78 ± 1.13 g
Tumor Weight TGI (%) (B16F10 melanoma; [4]): 23%
Tumor Weight (g) X ± SD (B16F10 melanoma; [5]): 1.26 ± 0.85 g
Tumor Weight TGI (%) (B16F10 melanoma; [5]): 45%
Tumor Weight (g) X ± SD (B16F10 melanoma; [6]): 1.39 ± 0.84 g
Tumor Weight TGI (%) (B16F10 melanoma; [6]): 40%
Tumor Weight (g) X ± SD (B16F10 melanoma; [7]): 1.04 ± 0.66 g
Tumor Weight TGI (%) (B16F10 melanoma; [7]): 55%
Tumor Weight (g) X ± SD (MC38 colon carcinoma; [8]): 1.03 ± 0.65 g
Tumor Weight TGI (%) (MC38 colon carcinoma; [8]): 40%
Tumor Weight (g) X ± SD (MC38 colon carcinoma; [9]): 1.13 ± 0.78 g
Tumor Weight TGI (%) (MC38 colon carcinoma; [9]): 34%
Tumor Weight (g) X ± SD (MC38 colon carcinoma; [10]): 0.42 ± 0.39 g
Tumor Weight TGI (%) (MC38 colon carcinoma; [10]): 75%
Tumor Weight (g) X ± SD (MC38 colon carcinoma; [11]): 0.73 ± 0.54 g
Tumor Weight TGI (%) (MC38 colon carcinoma; [11]): 57%
Body Weight (g) X ± SD Finish [2, 8]: 24.3 ± 2.1 g
Body Weight (g) X ± SD Start ([2]; MC38, IMMH-010 maleate 1.25 mg/kg PO once daily): 22.2 ± 0.4 g
Body Weight (g) X ± SD Finish [2, 9]: 25.3 ± 2.3 g
Body Weight (g) X ± SD Start ([2]; MC38, IMMH-010 maleate 2.5 mg/kg PO once daily): 22.0 ± 0.6 g
Body Weight (g) X ± SD Finish [2, 10]: 23.7 ± 1.8 g
Body Weight (g) X ± SD Start ([2]; MC38, IMMH-010 maleate 5 mg/kg PO once daily): 21.9 ± 0.8 g
Body Weight (g) X ± SD Finish [2, 11]: 25.0 ± 1.7 g
Body Weight (g) X ± SD Start ([2]; MC38, IMMH-010 maleate 10 mg/kg PO once daily): 21.9 ± 0.7 g
effect on body weight ([2]; MC38 model, IMMH-010 maleate PO once a day for 19 days): without weight loss
estimated CLhep ([3]; from human liver S9): 18.2 mL/min/kg
half-life at 10 μM ([3]; pH 7.4, human liver S9 0.5 mg protein/mL, 10 μM, NADPH): 6.66 min
CLhep as share of hepatic blood flow ([3]; range over human, monkey, dog and rat liver S9): 83.4–91.0%
IC50 (PD-1/PD-L1): 10 to 100 nM
